pIC50: −log10 of the molar value. Where two headings read alike, the source gives them in different places.
Tests used:
breast line MDA468 = assay: In vitro cell culture growth assay (MTS), MDA468; format: cell-based, human; conditions: MDA468 cells, three days after drug treatment
Outline: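 MDA468 or LNCap cells received inhibitors one day after plating and were grown for three days. Viable cell density read by MTS conversion, absorbance 490 nm, expressed as percent of control growth versus vehicle-treated cells on the same plate.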

prostate line LNCap = assay: In vitro cell culture growth assay (MTS), LNCap; format: cell-based, human; conditions: LNCap cells, three days after drug treatment
PI3K = PI3K (Homo sapiens, UniProt P42336); assay: Fluorescence polarization assay for PI3K; format: biochemical;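 further: PI3K kinase reaction on PIP2 with ATP, 30-60 min, product sensed by GST-GRP with red probe in fluorescence polarization (mP), controls without enzyme and at zero time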
Chain of PI3K (P42336 whole entry): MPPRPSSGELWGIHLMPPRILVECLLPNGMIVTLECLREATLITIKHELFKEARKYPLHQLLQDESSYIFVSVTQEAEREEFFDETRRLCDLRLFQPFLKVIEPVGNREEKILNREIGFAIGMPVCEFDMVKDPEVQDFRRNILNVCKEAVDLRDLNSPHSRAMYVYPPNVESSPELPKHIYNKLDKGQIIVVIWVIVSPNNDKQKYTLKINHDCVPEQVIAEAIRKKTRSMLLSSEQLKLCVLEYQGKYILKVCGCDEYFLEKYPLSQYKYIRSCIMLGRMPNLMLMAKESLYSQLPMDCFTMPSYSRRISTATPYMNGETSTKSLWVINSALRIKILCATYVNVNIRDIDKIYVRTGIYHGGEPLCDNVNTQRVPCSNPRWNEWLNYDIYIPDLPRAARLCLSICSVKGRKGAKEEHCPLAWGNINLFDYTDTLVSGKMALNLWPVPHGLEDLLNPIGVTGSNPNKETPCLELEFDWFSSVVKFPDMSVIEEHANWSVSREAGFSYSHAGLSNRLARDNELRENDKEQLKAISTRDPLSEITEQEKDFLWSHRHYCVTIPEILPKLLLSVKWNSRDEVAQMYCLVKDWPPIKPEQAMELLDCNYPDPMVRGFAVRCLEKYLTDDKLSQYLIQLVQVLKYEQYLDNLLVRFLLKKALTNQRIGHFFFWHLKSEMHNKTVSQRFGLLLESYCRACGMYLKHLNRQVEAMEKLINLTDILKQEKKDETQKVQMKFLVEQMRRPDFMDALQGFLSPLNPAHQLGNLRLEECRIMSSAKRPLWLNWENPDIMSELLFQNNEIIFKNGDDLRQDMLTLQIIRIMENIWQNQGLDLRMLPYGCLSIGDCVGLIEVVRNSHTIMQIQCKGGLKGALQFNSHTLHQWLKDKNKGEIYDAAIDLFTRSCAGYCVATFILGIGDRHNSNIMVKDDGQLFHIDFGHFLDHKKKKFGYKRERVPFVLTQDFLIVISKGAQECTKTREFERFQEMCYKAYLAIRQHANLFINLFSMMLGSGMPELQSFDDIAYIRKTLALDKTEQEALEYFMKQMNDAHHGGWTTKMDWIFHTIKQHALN
Chain of PI3K (P27986 whole entry partner): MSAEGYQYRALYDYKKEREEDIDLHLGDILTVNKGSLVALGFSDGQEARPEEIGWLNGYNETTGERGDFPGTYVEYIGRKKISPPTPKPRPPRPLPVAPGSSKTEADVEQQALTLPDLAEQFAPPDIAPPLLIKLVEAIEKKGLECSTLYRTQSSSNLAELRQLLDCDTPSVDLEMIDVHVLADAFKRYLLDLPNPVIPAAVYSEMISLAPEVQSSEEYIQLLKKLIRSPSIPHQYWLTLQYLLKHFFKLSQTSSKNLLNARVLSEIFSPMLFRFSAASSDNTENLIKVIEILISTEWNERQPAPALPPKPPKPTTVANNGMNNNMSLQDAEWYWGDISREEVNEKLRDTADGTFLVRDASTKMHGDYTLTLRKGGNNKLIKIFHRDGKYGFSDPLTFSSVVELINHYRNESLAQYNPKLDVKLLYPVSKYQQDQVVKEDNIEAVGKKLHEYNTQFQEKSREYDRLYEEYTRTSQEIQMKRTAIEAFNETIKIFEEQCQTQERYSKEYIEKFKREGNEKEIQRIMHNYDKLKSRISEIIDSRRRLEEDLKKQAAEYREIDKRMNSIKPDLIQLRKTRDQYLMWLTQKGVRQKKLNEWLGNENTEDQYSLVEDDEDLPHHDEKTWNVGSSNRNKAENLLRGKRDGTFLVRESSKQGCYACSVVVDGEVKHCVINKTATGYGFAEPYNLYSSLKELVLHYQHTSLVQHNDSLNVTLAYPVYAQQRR

Row | SMILES | pIC50 (prostate line LNCap; Homo sapiens, LNCaP, 72 h) | pIC50 (PI3K; PI3Kα; read-out: PI3Kα IC50) | pIC50 (breast line MDA468; Homo sapiens, 72 h) | pIC50 (breast line MDA468) | pIC50 (prostate line LNCap) | pIC50 (PI3K; read-out: PI3Kα IC50; PI3Kα)
1 | Nc1ccc(-c2nc(N3CCOCC3)c3cnn(C4CCN(C(=O)c5cccnc5)CC4)c3n2)nc1 [Compound 435, 6-{4-morpholin-4-yl-1-[1-(pyridin-3-ylcarbonyl)piperidin-4-yl]-1H-pyrazolo[3,4-d]pyrimidin-6-yl}pyridin-3-amine] | 4.35 | 5.39 | 4.22 | – | – | –
2 | Nc1cccc(-c2nc(N3CCOCC3)c3cnn(C4CCN(C(=O)c5cccnc5)CC4)c3n2)n1 [Compound 436, 6-{4-morpholin-4-yl-1-[1-(pyridin-3-ylcarbonyl)piperidin-4-yl]-1H-pyrazolo[3,4-d]pyrimidin-6-yl}pyridin-2-amine] | 5.01 | 5.30 | 4.60 | – | – | –
3 | Nc1ccnc(-c2nc(N3CCOCC3)c3cnn(-c4ccccc4)c3n2)c1 [Compound 437, 2-(4-morpholin-4-yl-1-phenyl-1H-pyrazolo[3,4-d]pyrimidin-6-yl)pyridin-4-amine] | 4.22 | 5.84 | 4.22 | – | – | –
4 | Nc1ccc(-c2nc(N3CCOCC3)c3cnn(C4CCN(C(=O)c5cccnc5)CC4)c3n2)c(F)c1 [Compound 460, 3-fluoro-4-{4-morpholin-4-yl-1-[1-(pyridin-3-ylcarbonyl)piperidin-4-yl]-1H-pyrazolo[3,4-d]pyrimidin-6-yl}aniline] | 5.31 | 5.39 | 4.85 | – | – | –
5 | FC(F)(F)CN1CCC(n2ncc3c(N4CCOCC4)nc(-c4ccc5[nH]ccc5c4)nc32)CC1 [Compound 471, 6-(1H-indol-5-yl)-4-morpholin-4-yl-1-[1-(2,2,2-trifluoroethyl)piperidin-4-yl]-1H-pyrazolo[3,4-d]pyrimidine] | 5.40 | 5.54 | 5.11 | – | – | –
6 | CNC(=O)Nc1cccc(-c2nc(N3CCOCC3)c3cnn(C4CCN(Cc5ccccc5)CC4)c3n2)c1 [Compound 482, N-{3-[1-(1-benzylpiperidin-4-yl)-4-morpholin-4-yl-1H-pyrazolo[3,4-d]pyrimidin-6-yl]phenyl}-N′-methylurea] | 5.24 | 5.72 | 5.17 | – | – | –
7 | NC(=O)Nc1cccc(-c2nc(N3CCOCC3)c3cnn(C4CCN(Cc5ccccc5)CC4)c3n2)c1 [Compound 483, N-{3-[1-(1-benzylpiperidin-4-yl)-4-morpholin-4-yl-1H-pyrazolo[3,4-d]pyrimidin-6-yl]phenyl}urea] | 5.17 | 5.66 | 4.92 | – | – | –
8 | c1ccc(CN2CCC(n3ncc4c(N5CCOCC5)nc(-c5cnc6ccccc6c5)nc43)CC2)cc1 [Compound 484, 3-[1-(1-benzylpiperidin-4-yl)-4-morpholin-4-yl-1H-pyrazolo[3,4-d]pyrimidin-6-yl]quinoline] | < 4.22 | 5.22 | 4.66 | – | – | –
9 | CC(C)N1CCC(n2ncc3c(N4CCOCC4)nc(-c4ccc5[nH]ccc5c4)nc32)CC1 [Compound 488, 6-(1H-indol-5-yl)-1-(1-isopropylpiperidin-4-yl)-4-morpholin-4-yl-1H-pyrazolo[3,4-d]pyrimidine] | 5.60 | 5.43 | 5.54 | – | – | –
10 | CC(c1ccccc1)N1CCC(n2ncc3c(N4CCOCC4)nc(-c4ccc5[nH]ccc5c4)nc32)CC1 (stereo not drawn) [Compound 490, 6-(1H-indol-5-yl)-4-morpholin-4-yl-1-[1-(1-phenylethyl)piperidin-4-yl]-1H-pyrazolo[3,4-d]pyrimidine] | 5.42 | 5.57 | 5.46 | – | – | –
11 | O=C(Oc1ccccc1)N1CCC(n2ncc3c(N4CCOCC4)nc(-c4ccc5[nH]ccc5c4)nc32)CC1 [Compound 493, phenyl 4-[6-(1H-indol-5-yl)-4-morpholin-4-yl-1H-pyrazolo[3,4-d]pyrimidin-1-yl]piperidine-1-carboxylate] | – | – | – | 5.37 | 5.89 | 6.27

Further compounds by rising pIC50 (prostate line LNCap; Homo sapiens, LNCaP, 72 h), results first:

Row | pIC50 (prostate line LNCap; Homo sapiens, LNCaP, 72 h) | pIC50 (PI3K; PI3Kα; read-out: PI3Kα IC50) | SMILES | pIC50 (breast line MDA468; Homo sapiens, 72 h) | pIC50 (breast line MDA468) | pIC50 (prostate line LNCap) | pIC50 (PI3K; read-out: PI3Kα IC50; PI3Kα)
12 | 5.60 | 6.10 | COC(=O)Nc1ccc(-c2nc(N3CCOCC3)c3cnn(C4CCN(Cc5ccccc5Cl)CC4)c3n2)cc1 [Compound 455, methyl (4-{1-[1-(2-chlorobenzyl)piperidin-4-yl]-4-morpholin-4-yl-1H-pyrazolo[3,4-d]pyrimidin-6-yl}phenyl)carbamate] | 5.28 | – | – | –
13 | 5.62 | 5.30 | COCCN1CCC(n2ncc3c(N4CCOCC4)nc(-c4ccc5[nH]ccc5c4)nc32)CC1 [Compound 491, 6-(1H-indol-5-yl)-1-[1-(2-methoxyethyl)piperidin-4-yl]-4-morpholin-4-yl-1H-pyrazolo[3,4-d]pyrimidine] | 5.38 | – | – | –
14 | 5.70 | 6.41 | COC(=O)Nc1ccc(-c2nc(N3CCOCC3)c3cnn(C4CCN(Cc5ccc(Cl)cc5)CC4)c3n2)cc1 [Compound 451, methyl (4-{1-[1-(4-chlorobenzyl)piperidin-4-yl]-4-morpholin-4-yl-1H-pyrazolo[3,4-d]pyrimidin-6-yl}phenyl)carbamate] | 5.05 | – | – | –
15 | 5.77 | 5.97 | COC(=O)Nc1ccc(-c2nc(N3CCOCC3)c3cnn(C4CCNCC4)c3n2)cc1 [Compound 459, methyl [4-(4-morpholin-4-yl-1-piperidin-4-yl-1H-pyrazolo[3,4-d]pyrimidin-6-yl)phenyl]carbamate] | 5.52 | – | – | –
16 | 5.89 | 5.84 | COC(=O)Nc1ccc(-c2nc(N3CCOCC3)c3cnn(C4CCN(CC(N)=O)CC4)c3n2)cc1 [Compound 456, methyl (4-{1-[1-(2-amino-2-oxoethyl)piperidin-4-yl]-4-morpholin-4-yl-1H-pyrazolo[3,4-d]pyrimidin-6-yl}phenyl)carbamate] | 5.49 | – | – | –
17 | 5.92 | 6.12 | COC(=O)Nc1ccc(-c2nc(N3CCOCC3)c3cnn(C4CCN(Cc5ccc(F)cc5)CC4)c3n2)cc1 [Compound 450, methyl (4-{1-[1-(4-fluorobenzyl)piperidin-4-yl]-4-morpholin-4-yl-1H-pyrazolo[3,4-d]pyrimidin-6-yl}phenyl)carbamate] | 5.59 | – | – | –
18 | 6.00 | 5.45 | O=C(Nc1cc(F)c(-c2nc(N3CCOCC3)c3cnn(C4CCN(C(=O)c5cccnc5)CC4)c3n2)cc1F)NC1CC1 [Compound 468, 1-cyclopropyl-3-(2,5-difluoro-4-{4-morpholin-4-yl-1-[1-(pyridin-3-ylcarbonyl)piperidin-4-yl]-1H-pyrazolo[3,4-d]pyrimidin-6-yl}phenyl)urea] | 5.66 | – | – | –
19 | 6.00 | 6.32 | CN(C)CC=CC(=O)N1CCC(n2ncc3c(N4CCOCC4)nc(-c4ccc5[nH]ccc5c4)nc32)CC1 [Compound 487, 4-{4-[6-(1H-indol-5-yl)-4-morpholin-4-yl-1H-pyrazolo[3,4-d]pyrimidin-1-yl]piperidin-1-yl}-N,N-dimethyl-4-oxobut-2-en-1-amine] | 5.70 | – | – | –
20 | 6.03 | 5.70 | C=CC(=O)N1CCC(n2ncc3c(N4CCOCC4)nc(-c4ccc(NC(=O)OC)cc4)nc32)CC1 [Compound 458, methyl {4-[1-(1-acryloylpiperidin-4-yl)-4-morpholin-4-yl-1H-pyrazolo[3,4-d]pyrimidin-6-yl]phenyl}carbamate] | 5.92 | – | – | –
21 | 6.05 | 6.14 | COC(=O)Nc1ccc(-c2nc(N3CCOCC3)c3cnn(C4CCN(C(=O)N5CCN(C)CC5)CC4)c3n2)cc1 [Compound 448, methyl [4-(1-{1-[(4-methylpiperazin-1-yl)carbonyl]piperidin-4-yl}-4-morpholin-4-yl-1H-pyrazolo[3,4-d]pyrimidin-6-yl)phenyl]carbamate] | 5.77 | – | – | –
22 | 6.10 | 7.38 | CNC(=O)Nc1ccc(-c2nc(N3CCOCC3)c3cnn(C4CCN(C(=O)c5cccnc5)CC4)c3n2)cn1 [Compound 480, 1-methyl-3-(5-{4-morpholin-4-yl-1-[1-(pyridin-3-ylcarbonyl)piperidin-4-yl]-1H-pyrazolo[3,4-d]pyrimidin-6-yl}pyridin-2-yl)urea] | 5.92 | – | – | –
23 | 6.11 | 5.51 | c1ccc(CCN2CCC(n3ncc4c(N5CCOCC5)nc(-c5ccc6[nH]ccc6c5)nc43)CC2)cc1 [Compound 489, 6-(1H-indol-5-yl)-4-morpholin-4-yl-1-[1-(2-phenylethyl)piperidin-4-yl]-1H-pyrazolo[3,4-d]pyrimidine] | 5.51 | – | – | –
24 | 6.12 | 5.48 | COC(=O)N1CCC(n2ncc3c(N4CCOCC4)nc(-c4ccc5[nH]ccc5c4)nc32)CC1 [Compound 494, methyl 4-[6-(1H-indol-5-yl)-4-morpholin-4-yl-1H-pyrazolo[3,4-d]pyrimidin-1-yl]piperidine-1-carboxylate] | 5.69 | – | – | –
25 | 6.15 | 6.16 | O=C(Cc1ccccc1)N1CCC(n2ncc3c(N4CCOCC4)nc(-c4ccc5[nH]ccc5c4)nc32)CC1 [Compound 492, 6-(1H-indol-5-yl)-4-morpholin-4-yl-1-[1-(phenylacetyl)piperidin-4-yl]-1H-pyrazolo[3,4-d]pyrimidine] | 5.52 | – | – | –
26 | 6.22 | 5.74 | COC(=O)Nc1ccc(-c2nc(N3CCOCC3)c3cnn(C4CCN(Cc5cccnc5OC)CC4)c3n2)cc1 [Compound 452, methyl [4-(1-{1-[(2-methoxypyridin-3-yl)methyl]piperidin-4-yl}-4-morpholin-4-yl-1H-pyrazolo[3,4-d]pyrimidin-6-yl)phenyl]carbamate] | 5.66 | – | – | –
27 | 6.30 | 6.23 | COC(=O)Nc1ccc(-c2nc(N3CCOCC3)c3cnn(C4CCN(CC(=O)c5ccccc5)CC4)c3n2)cc1 [Compound 457, methyl (4-{4-morpholin-4-yl-1-[1-(2-oxo-2-phenylethyl)piperidin-4-yl]-1H-pyrazolo[3,4-d]pyrimidin-6-yl}phenyl)carbamate] | 5.74 | – | – | –

Reference: patent US20080234262A1 (Wyeth, priority 2007, published 2008)
